Here are results for 22 compounds from US20080161269A1, “Compounds 620” (ASTRAZENECA AB, priority 2006, published 2008).

Molecules are shown by their SMILES. Where a name gives a salt, the structure may show the parent alone. A value given as a limit tells only on which side of the number the result lay.

human β-Secretase, sequence (P56817 22-460): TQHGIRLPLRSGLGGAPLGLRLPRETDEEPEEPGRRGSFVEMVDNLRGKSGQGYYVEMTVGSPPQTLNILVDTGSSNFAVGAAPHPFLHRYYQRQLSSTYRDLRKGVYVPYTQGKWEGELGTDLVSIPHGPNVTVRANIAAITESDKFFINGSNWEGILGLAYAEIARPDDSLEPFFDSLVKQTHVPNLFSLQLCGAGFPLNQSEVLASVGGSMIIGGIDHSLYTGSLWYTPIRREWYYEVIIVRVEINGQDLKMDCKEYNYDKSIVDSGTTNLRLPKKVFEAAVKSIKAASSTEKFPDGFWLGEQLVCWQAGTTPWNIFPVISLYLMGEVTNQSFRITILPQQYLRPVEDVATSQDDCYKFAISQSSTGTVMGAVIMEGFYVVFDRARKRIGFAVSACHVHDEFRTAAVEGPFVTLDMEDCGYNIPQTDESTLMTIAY

In the assay the target is human β-Secretase (Homo sapiens, UniProt P56817). The experiment in a line: TR-FRET assay. Type of assay: biochemical. Particulars: enzyme (truncated form) 0.3 nM; substrate (Europium)CEVNLDAEFK(Qsy7) 100 nM; pH4.5; 15 minutes at room temperature. The method, then: The enzyme used in the IGEN Cleavage-, Fluorescent-, TR-FRET- and the BiaCore assay is described as follows:
The gene was fused to the Fc domain of IgG1 (affinity tag) and stably cloned into HEK 293 cells. Purified sBACE-Fc is stored in Tris buffer, pH 9.2 and has a purity of 95%.
Dilute the enzyme (truncated form) to 6 μg/mL (stock 1.3 mg/mL) and the substrate (Europium)CEVNLDAEFK(Qsy7) to 200 nM (stock 60 μM) in reaction buffer (NaAcetate, chaps, triton x-100, EDTA pH4.5). The Biomek FX is used for all liquid handling and the enzyme and substrate solutions are kept on ice until they are placed in Biomek FX. Enzyme (9 μl) is added to the plate then 1 μl of compound in dimethylsulphoxide is added, mixed and pre-incubated for 10 minutes. Substrate (10 μl) is then added, mixed and the reaction proceeds in the dark for 15 minutes at room temperature. The reaction is stopped with the addition of Stop solution (7 μl, NaAcetate pH 9). The fluorescence of the product is measured on a Wallac Victor II plate reader with an excitation wavelength of 340 nm and an emission wavelength of 615 nm. The assay is done in a Costar 384 well round bottom, low volume, non-binding surface (Corning #3676). The final concentration of the enzyme is 0.3 nM; the final concentration of substrate is 100 nM (Km of ˜250 nM). The dimethylsulphoxide control defines the 100% activity level and 0% activity is defined by exclusion of the enzyme, only using reaction buffer instead.
Turning to `CN1C(=O)C(c2ccc([Si](C)(C)C)cc2)(c2cccc(-c3cncnc3)c2)N=C1N` (racemic) [Example 14, 2-Amino-3-methyl-5-(3-pyrimidin-5-ylphenyl)-5-[4-(trimethylsilyl)phenyl]-3,5-dihydro-4H-imidazol-4-one], the IC50 worked out at 107 nM.
To `CN1C(=O)C(c2ccc([Si](C)(C)C)cc2)(c2cccc(-c3cncnc3)c2)N=C1N` (single isomer, unassigned) [Example 15 (isomer 1), 2-amino-3-methyl-5-(3-pyrimidin-5-ylphenyl)-5-[4-(trimethylsilyl)phenyl]-3,5-dihydro-4H-imidazol-4-one] belongs 41 nM; to `CN1C(=O)C(c2ccc([Si](C)(C)C)cc2)(c2cccc(-c3cncnc3)c2)N=C1N` (single isomer, unassigned) [Example 15 (isomer 2), 2-amino-3-methyl-5-(3-pyrimidin-5-ylphenyl)-5-[4-(trimethylsilyl)phenyl]-3,5-dihydro-4H-imidazol-4-one], over 10000 nM.
Under `COc1cccc(-c2cccc(C3(c4ccc([Si](C)(C)C)cc4)N=C(N)N(C)C3=O)c2)c1` (stereo not shown) [Example 12, 2-Amino-5-(3′-methoxybiphenyl-3-yl)-3-methyl-5-[4-(trimethylsilyl)phenyl]-3,5-dihydro-4H-imidazol-4-one] stands 84 nM; under `CN1C(=O)C(c2ccc([Si](C)(C)C)cc2)(c2cccc(-c3cccnc3F)c2)N=C1N` (stereo not shown) [Example 13, 2-Amino-5-[3-(2-fluoropyridin-3-yl)phenyl]-3-methyl-5-[4-(trimethylsilyl)phenyl]-3,5-dihydro-4H-imidazol-4-one], 81 nM.
Turning to `COc1cncc(-c2cccc(C3(c4ccc([Si](C)(C)C)cc4)N=C(N)N(C)C3=O)c2)c1` (stereo not shown) [Example 16, 2-amino-5-[3-(5-methoxypyridin-3-yl)phenyl]-3-methyl-5-(4-trimethylsilylphenyl)imidazol-4-one acetic acid salt], it took 23 nM to reach half-maximal inhibition (IC50).
To `CN1C(=O)C(c2ccc([Si](C)(C)C)cc2)(c2cccc(-c3cccnc3)c2)N=C1N` (stereo not shown) [Example 17, 2-amino-3-methyl-5-(3-pyridin-3-ylphenyl)-5-(4-trimethylsilylphenyl)imidazol-4-one acetic acid salt] belongs 118 nM; to `CN1C(=O)C(c2ccc([Si](C)(C)C)cc2)(c2cccc(-c3cncc(F)c3)c2)N=C1N` (stereo not shown) [Example 18, 2-amino-5-[3-(5-fluoropyridin-3-yl)phenyl]-3-methyl-5-(4-trimethylsilylphenyl)imidazol-4-one acetic acid salt], 180 nM.
With `CN1C(=O)C(c2ccc([Si](C)(C)C)cc2)(c2cccc(-c3cncc(C#N)c3)c2)N=C1N` (stereo not shown) [Example 19, 5-[3-[2-amino-1-methyl-5-oxo-4-(4-trimethylsilylphenyl)imidazol-4-yl]phenyl]pyridine-3-carbonitrile acetic acid salt], the IC50 was 118 nM.
Turning to `CN1C(=O)C(c2ccc([Si](C)(C)C)cc2)(c2cccc(-c3ccc(F)nc3)c2)N=C1N` (stereo not shown) [Example 20, 2-amino-5-[3-(6-fluoropyridin-3-yl)phenyl]-3-methyl-5-(4-trimethylsilylphenyl)imidazol-4-one Acetic Acid Salt], the IC50 stood at 437 nM.
Under `CN1C(=O)C(c2ccc([Si](C)(C)C)cc2)(c2cccc(-c3cnccc3C#N)c2)N=C1N` (stereo not shown) [Example 21, 3-[3-[2-amino-1-methyl-5-oxo-4-(4-trimethylsilylphenyl)imidazol-4-yl]phenyl]pyridine-4-carbonitrile Acetic Acid Salt] stands 460 nM; under `CN1C(=O)C(c2ccc([Si](C)(C)C)cc2)(c2cccc(-c3cnn(C)c3)c2)N=C1N` (stereo not shown) [Example 22, 2-amino-3-methyl-5-[3-(1-methylpyrazol-4-yl)phenyl]-5-(4-trimethylsilylphenyl)imidazol-4-one Acetic Acid Salt], 2740 nM.
To `Cc1ncc(-c2cccc(C3(c4ccc([Si](C)(C)C)cc4)N=C(N)N(C)C3=O)c2)cn1` (stereo not shown) [Example 23, 2-amino-3-methyl-5-[3-(2-methylpyrimidin-5-yl)phenyl]-5-(4-trimethylsilylphenyl)imidazol-4-one acetic acid salt] belongs 2260 nM.
Turning to `CN1C(=O)C(c2ccc([Si](C)(C)C)cc2)(c2cccc(-c3cnccn3)c2)N=C1N` (stereo not shown) [Example 24, 2-amino-3-methyl-5-(3-pyrazin-2-ylphenyl)-5-(4-trimethylsilylphenyl)imidazol-4-one], the midpoint of inhibition, the IC50, lay at 80 nM.
Under `CN1C(=O)C(c2ccc([Si](C)(C)C)cc2)(c2cccc(-c3cnc(F)nc3)c2)N=C1N` (stereo not shown) [Example 25, 2-amino-5-[3-(2-fluoropyrimidin-5-yl)phenyl]-3-methyl-5-(4-trimethylsilylphenyl)imidazol-4-one] stands 460 nM.
To `CN1C(=O)C(c2cccc(-c3cncnc3)c2)(c2cccc([Si](C)(C)C)c2)N=C1N` (stereo not shown) [Example 26, 2-amino-1-methyl-4-(3-(pyrimidin-5-yl)phenyl)-4-(3-(trimethylsilyl)phenyl)-1H-imidazol-5(4H)-one] belongs 135 nM; to `CN1C(=O)C(c2cccc(-c3cncc(Cl)c3)c2)(c2cccc([Si](C)(C)C)c2)N=C1N` (stereo not shown) [Example 27, 2-amino-4-(3-(5-chloropyridin-3-yl)phenyl)-1-methyl-4-(3-(trimethylsilyl)phenyl)-1H-imidazol-5(4H)-one], 163 nM; to `CN1C(=O)C(c2cccc(-c3ccc(F)nc3)c2)(c2cccc([Si](C)(C)C)c2)N=C1N` (stereo not shown) [Example 28, 2-amino-4-(3-(6-fluoropyridin-3-yl)phenyl)-1-methyl-4-(3-(trimethylsilyl)phenyl)-1H-imidazol-5(4H)-one], 278 nM.
On to `CN1C(=O)C(c2cccc(-c3cccnc3)c2)(c2cccc([Si](C)(C)C)c2)N=C1N` (stereo not shown) [Example 29, 2-amino-1-methyl-4-(3-(pyridin-3-yl)phenyl)-4-(3-(trimethylsilyl)phenyl)-1H-imidazol-5(4H)-one], for which the IC50 was 202 nM.
To `CN1C(=O)C(c2cccc(-c3cccnc3F)c2)(c2cccc([Si](C)(C)C)c2)N=C1N` (stereo not shown) [Example 30, 2-amino-4-(3-(2-fluoropyridin-3-yl)phenyl)-1-methyl-4-(3-(trimethylsilyl)phenyl)-1H-imidazol-5(4H)-one] belongs 182 nM; to `COc1cccc(-c2cccc(C3(c4cccc([Si](C)(C)C)c4)N=C(N)N(C)C3=O)c2)n1` (stereo not shown) [Example 31, 2-amino-4-(3-(6-methoxypyridin-2-yl)phenyl)-1-methyl-4-(3-(trimethylsilyl)phenyl)-1H-imidazol-5(4H)-one], 1530 nM.
To `CN1C(=O)C(c2cccc(-c3cnccn3)c2)(c2cccc([Si](C)(C)C)c2)N=C1N` (stereo not shown) [Example 32, 2-amino-1-methyl-4-(3-(pyrazin-2-yl)phenyl)-4-(3-(trimethylsilyl)phenyl)-1H-imidazol-5(4H)-one] belongs 86 nM.

As usually defined, the IC50 is the point on the concentration scale where inhibition reaches its midpoint. The low end stands for inhibition by little substance, the high end for a need for much substance.
